Test results reported in patent US7790172B2, “Methods for reducing nasopharyngeal colonization of non-typable Haemophilus influenzae with synthetic chimeric fimbrin peptides” (priority 1995, dated 2010).
Converted amounts (≈) assume the structure as drawn. Peptide text beside a SMILES is read from it.

T1: NTHi #1128 fimbrial protein (Haemophilus influenzae, UniProt P45996)
T1 construct: isolated, reassembled, homologous fimbrial protein from NTHi; endogenous in cells; host or cells: NTHi strain #1128 (protein isolated from the bacterial outer membrane)
T1 sequence (P45996 22-359): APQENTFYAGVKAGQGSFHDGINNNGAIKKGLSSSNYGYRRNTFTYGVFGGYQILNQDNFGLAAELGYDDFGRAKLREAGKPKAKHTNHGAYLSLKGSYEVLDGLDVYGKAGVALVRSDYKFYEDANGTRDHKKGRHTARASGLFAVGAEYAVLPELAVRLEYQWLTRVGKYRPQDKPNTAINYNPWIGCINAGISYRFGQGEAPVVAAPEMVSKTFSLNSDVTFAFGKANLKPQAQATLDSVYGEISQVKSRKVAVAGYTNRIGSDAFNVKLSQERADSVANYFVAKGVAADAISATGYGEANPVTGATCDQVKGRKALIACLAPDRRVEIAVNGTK

T2: NTHi #1128 isolated fimbrin protein (25 and 37 kDa species) (Haemophilus influenzae, UniProt P45996)
T2 construct: isolated, reassembled, homologous fimbrial protein from NTHi; endogenous in cells; host or cells: NTHi strain #1128 (protein isolated from the bacterial outer membrane)
T2 sequence (P45996 22-359): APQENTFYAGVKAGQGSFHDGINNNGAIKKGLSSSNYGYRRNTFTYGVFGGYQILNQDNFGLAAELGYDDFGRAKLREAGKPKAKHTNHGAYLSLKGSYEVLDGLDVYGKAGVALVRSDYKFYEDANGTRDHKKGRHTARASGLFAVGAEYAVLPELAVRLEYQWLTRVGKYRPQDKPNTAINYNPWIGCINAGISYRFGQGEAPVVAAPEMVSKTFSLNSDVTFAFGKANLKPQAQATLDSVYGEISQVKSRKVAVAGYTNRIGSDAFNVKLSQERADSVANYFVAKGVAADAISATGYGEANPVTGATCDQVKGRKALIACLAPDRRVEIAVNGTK

B1: fimbrin: isolated fimbrin protein preparation from NTHi strain #1128, used as comparison immunogen (protein)
chain: APQENTFYAGVKAGQGSFHDGINNNGAIKKGLSSSNYGYRRNTFTYGVFGGYQILNQDNFGLAAELGYDDFGRAKLREAGKPKAKHTNHGAYLSLKGSYEVLDGLDVYGKAGVALVRSDYKFYEDANGTRDHKKGRHTARASGLFAVGAEYAVLPELAVRLEYQWLTRVGKYRPQDKPNTAINYNPWIGCINAGISYRFGQGEAPVVAAPEMVSKTFSLNSDVTFAFGKANLKPQAQATLDSVYGEISQVKSRKVAVAGYTNRIGSDAFNVKLSQERADSVANYFVAKGVAADAISATGYGEANPVTGATCDQVKGRKALIACLAPDRRVEIAVNGTK

Legend:
[1] = system: fimbrin from NTHi #1128 and NTHi #86-028NP; test: Western immunoblot of chinchilla antisera; assay type: binding, non-typable Haemophilus influenzae; details: for Western immunoblot recognition by antisera of homologous fimbrin / peptides: NTHi #1128 OMP preparation, isolated fimbrin, LB1, LB2; for Western immunoblot recognition by antisera of heterologous fimbrin: NTHi #86-028NP
Text: FIG. 2A is a western immunoblot of chinchilla anti-LB1 antisera. Lane a contains a mixture of sera and NTHi #1128 enriched OMP preparation. Lane b contains a mixture of sera and isolated fimbrin from NTHi #1128. Lane c contains a mixture of sera and LB1. Lane d contains a mixture of sera and LB2. Lane e contains a mixture of sera and NTHi #86-028NP enriched OMP preparation. Lane f contains a mixture of sera and isolated fimbrin from NTHi #86-028NP. The lane marked “Std” contains pre-stained molecular mass markers; mass in kDa is given along left side of immunoblot.
FIG. 2B is a western immunoblot of chinchilla anti-LB2 antisera. Lane a contains a mixture of sera and NTHi #1128 enriched OMP preparation. Lane b contains a mixture of sera and isolated fimbrin from NTHi #1128. Lane c contains a mixture of sera and LB1. Lane D contains a mixture of sera and LB2. Lane e contains a mixture of sera and NTHi #86-028NP enriched OMP preparation. Lane f contains a mixture of sera and isolated fimbrin from NTHi #86-028NP. The lane marked “Std” contains pre-stained molecular mass markers; mass in kDa is given along left side of immunoblot.
FIG. 2C is a western immunoblot of chinchilla anti-fimbrial protein antisera. Lane a contains a mixture of sera and NTHi #1128 enriched OMP preparation. Lane b contains a mixture of sera and isolated fimbrin from NTHi #1128. Lane c contains a mixture of sera and LB1. Lane d contains a mixture of sera and LB2. Lane e contains a mixture of sera and NTHi #86-028NP enriched OMP preparation. Lane f contains a mixture of sera and isolated fimbrin from NTHi #86-028NP. The lane marked “Std” contains pre-stained molecular mass markers; mass in kDa is given along left side of immunoblot.
(§1) The chinchillas received a second dose of 50 μg of either the LB1 or LB2 in incomplete Freund's adjuvant 30 days later. Sera was obtained 2 weeks after the second dose.

Solubility in water = assay type: physicochemical
NTHi strain #1128 = test: Inhibition of adherence of NTHi to active ciliated chinchilla tracheal mucosal epithelium; assay type: cell-based, non-typable Haemophilus influenzae; details: dose dependence, 50 and 100 μg/ml
Procedure: LB1 and LB2 were each added to the lumen of excised 15 chinchilla tracheas and incubated for about 1 hour. Next 10^8cFu NTHi/ml were added to the cultures and incubated for about 1 hour. The tracheas were rinsed, homogenized, diluted and plated onto chocolate agar. The NTHi colonies were then counted.

[2] = molecular target: T1, NTHi #1128 fimbrial protein; assay type: in vivo, non-typable Haemophilus influenzae; details: chinchilla sera 2 weeks after second dose; ELISA
Procedure: as §1

NTHi strain 1128 = test: Nasopharyngeal colonization by NTHi in immunized chinchillas (nasopharyngeal lavage); assay type: in vivo, chinchilla
Procedure: Nasopharyngeal colonization by NTHi was/were examined in two separate trials, study A and study B.
In study A, five cohorts of four chinchillas each were actively immunized with one of the following preparations: in complete Freund's adjuvant or a saline control preparation; 100 μg of the synthetic chimeric fimbrin peptide LB1, 100 μg of a total outer membrane protein preparation from strain #1128; 100 μg of the synthetic chimeric fimbrin peptide LB2; 10 μg isolated fimbrin protein preparation from strain #1128. The total outer membrane preparation and fimbrin were assessed for endotoxin content prior to their use as an immunogen via a chromogenic Amoebocyte Lysate assay which is commercially available from Whittaker Bioproducts under the designation QCL-1000. The preparations were subcutaneously injected into the chinchillas.
Then 30 days later the animals received a booster of one-half of the initial dosage of the same immunogen but in incomplete Freund's adjuvant. Ten days later they received 6×10^6 TCID50 adenovirus intranasally. Thereafter, these five cohorts were divided into two groups each and challenged intranasally, about 5×10^7cfu of NTHi strain 1128. The chinchillas were subject to nasopharyngeal lavage over a 21 day period, and the lavage fluid was examined and quantified for NTHi. The NTHi concentration was determined by plating on selective media. The NTHi lavage fluid concentration was plotted over time.
Again, the NTHi lavage fluid concentration was plotted over time.

[3] = molecular target: T2, NTHi #1128 isolated fimbrin protein (25 and 37 kDa species); assay type: binding, non-typable Haemophilus influenzae; details: rabbit antisera; fimbrin isolated from NTHi strain #1128
Procedure: Two rabbits were immunized with the LB1 synthetic chimeric fimbrin peptide and two rabbits were immunized with the LB2 synthetic chimeric fimbrin peptide. Rabbits received an initial immunizing dose of 500 μg of either the LB1 or LB2 in complete Freund's adjuvant. The rabbits received a second dose of 400 μg of the synthetic chimeric fimbrin peptide 21 days later. The rabbits received a third dose of synthetic chimeric fimbrin peptide in complete Freund's adjuvant 42 days later with 400 μg of the same peptide in either incomplete Freud's adjuvant (IFA) or phosphate buffered saline (PBS) (one rabbit per diluent). Sera was obtained 3 weeks after each dose. The sera from each animal was assessed for titer and specificity against LB1, LB2 and fimbrial protein, by both ELISA and Western blot.

[4] = system: antibodies in sera directed to NTHi; test: Anti-serum ELISA using synthetic chimeric fimbrin peptides as coating antigen; assay type: binding; details: peptide as ELISA antigen, chinchilla sera
Procedure: An anti-serum Elisa was performed by first coating an immulon 1, flat bottom plate containing 96 wells with varied concentrations of LB1 and LB2 according to the dilute checkerboard assay method. The LB1 and LB2 were diluted first in carbonate-bicarbonate buffer at pH 9.6. This coating buffer contained 1.59 g/L NaCO3, 2.93 g/L NaHCO3 at a pH of 9.6. 50 μl of the LB1 or LB2 were added for each well and incubated at 4° C. overnight. After the overnight incubation, the liquid was emptied from the plates and 100 μl per well of 10 mM PBS at pH 7.4 with 0.5% BSA was added, and incubated at 37° C. for 1 hour. Next, the liquid was emptied from the plate and washed three times with 10 mM PBS at pH 7.4 with 0.05% Tween 20 (PBT) at a volume of 250 μl per well. Then the plate was emptied by pounding three times onto paper towels. Next, 50 μl per well of the sera to be assayed was diluted in 10 mM PBS at a pH of 7.4 and added to the plate and incubated at 37° C. for one hour. The liquid was then emptied from the plates and washed three times with 10 mM PBS at pH 7.4 containing 0.05% Tween 20 (PBT) at a volume of 250 μl per well and the plates were pounded three times onto paper towels. Next, 500 μl per well of secondary antibody diluted 1 to 1000 times in PBT was added. Where the sera to be assayed was rabbit, the secondary antibody was HRP chimeric goat anti-rabbit antibody. Where the sera to be assayed was chinchilla sera, then the secondary antibody was HRP protein A. The secondary antibody was incubated at 37° C. for one hour. Next, the liquid was emptied from the plates and washed three times with 10 mM PBS at pH 7.4 containing 0.05% Tween 20. Next, one tablet o-phenylenediamine was suspended in 12 ml citrate phosphate buffer at pH 5.0. The citrate phosphate buffer contained 0.1 M citric acid, 1.0 M Na2HPO4 at pH 5.0. Next 12 μl 30% H2O2 was added to the o-phenylenediamine solution and 100 μl of this mixture was added to each well. The solution was incubated at room temperature in the dark and after 10 minutes, the absorbencies were read at 400 nm. The reaction was stopped at 16 minutes with 100μ per well of 2NH2SO4 and the plates were then read at 490 nm.

[5] = system: native fimbriae of whole, unfixed NTHi strain #1128; test: Indirect immunogold labeling of unfixed NTHi with chinchilla antiserum (transmission electron micrograph); assay type: binding, non-typable Haemophilus influenzae
Text: FIG. 3 is a transmission electron micrograph of two unfixed NTHi strain #1128 cells, shown at bottom of the Figure, which were indirectly immuno-labeled with chinchilla anti-LB1IFA serum and 10 nm gold-chimeric Protein A.
Two unfixed NTHi strain #1128 cells were indirectly immunolabeled with chinchilla anti-LB1IFA serum and 10 nm gold-chimeric Protein A. The preparation was subjected to stable, low-angle shadow casting with platinum and palladium to impart a sense of height to low-profile fimbriae.

[6] = study A, chinchillas immunized with 100 μg peptide plus booster, intranasal challenge about 5×10^7 cfu NTHi strain 1128, FIG. 4
[7] = study B, higher intranasal challenge dose 1.5×10^8 cfu/animal NTHi #1128, FIG. 5

Molecule | Western immunoblot recognition by antisera of homologous fimbrin / peptides [1] | solubility (Solubility in water) [µg/mL] | Effect on inhibition of adherence of NTHi strain #1128 to ciliated chinchilla tracheal epithelium (NTHi strain #1128) | Reciprocal Titer of Sera against: NTHi #1128 fimbrial protein [2] | NTHi in nasopharyngeal lavage fluid by Day 21 (NTHi strain 1128; [6]) | NTHi in nasopharyngeal lavage fluid by Day 21 (NTHi strain 1128; [7]) | Western blot reactivity of antisera with fimbrin [3] | Reciprocal Titer ([4]; post infection) | Reciprocal Titer ([4]; pre infection) | Recognition of native fimbriae by antiserum (immunogold labeling) [5] | Western immunoblot recognition by antisera of heterologous fimbrin [1]
CC[C@H](C)[C@H](NC(=O)[C@H](CC(C)C)NC(=O)[C@H](CO)NC(=O)[C@H](CC(C)C)NC(=O)[C@H](CC(C)C)NC(=O)[C@H](CCCCN)NC(=O)[C@H](CC(C)C)NC(=O)[C@H](CO)NC(=O)[C@@H]1CCCN1C(=O)CNC(=O)[C@H](CCCCN)NC(=O)[C@H](CCCCN)NC(=O)[C@H](Cc1c[nH]cn1)NC(=O)[C@H](CC(=O)O)NC(=O)[C@H](CCCNC(=N)N)NC(=O)[C@@H](NC(=O)CNC(=O)[C@H](CC(N)=O)NC(=O)[C@H](C)NC(=O)[C@H](CC(=O)O)NC(=O)[C@H](CCC(=O)O)NC(=O)[C@H](Cc1ccc(O)cc1)NC(=O)[C@H](Cc1ccccc1)NC(=O)[C@H](CCCCN)NC(=O)[C@H](Cc1ccc(O)cc1)NC(=O)[C@H](CC(=O)O)NC(=O)[C@H](CO)NC(=O)[C@@H](N)CCCNC(=N)N)[C@@H](C)O)C(=O)N[C@@H](CCCCN)C(=O)NCC(=O)N[C@H](C(=O)N[C@H](C(=O)N[C@H](C(=O)N[C@@H](Cc1c[nH]cn1)C(=O)N[C@@H](CCCNC(=N)N)C(=O)N[C@@H](CC(C)C)C(=O)N[C@@H](CCC(=O)O)C(=O)NCC(=O)N[C@H](C(=O)N[C@@H](CCC(=O)O)C(=O)O)C(C)C)C(C)C)[C@@H](C)CC)C(C)C [LB1] (H-RSDYKFYEDANGTRDHKKGPSLKLLSLIKGVIVHRLEGVE-OH) | only recognized the LB1 | ~10000 (≈ 2190 µM) | dose-dependent effect on inhibition of adherence | 15,000 | 0 | 0 | sera reactivity to fimbrin (both molecular weight species) occurred only after immunization | >500 | ≦100 |  | 
CC[C@H](C)[C@H](NC(=O)[C@H](CC(C)C)NC(=O)[C@H](CO)NC(=O)[C@H](CC(C)C)NC(=O)[C@H](CC(C)C)NC(=O)[C@H](CCCCN)NC(=O)[C@H](CC(C)C)NC(=O)[C@H](CO)NC(=O)[C@@H]1CCCN1C(=O)CNC(=O)[C@@H](NC(=O)[C@H](CC(N)=O)NC(=O)[C@@H]1CCCN1C(=O)[C@H](CCCCN)NC(=O)[C@H](CC(=O)O)NC(=O)[C@H](CCC(N)=O)NC(=O)[C@@H]1CCCN1C(=O)[C@H](CCCNC(=N)N)NC(=O)[C@H](Cc1ccc(O)cc1)NC(=O)[C@H](CCCCN)NC(=O)CNC(=O)[C@@H](NC(=O)[C@H](CCCNC(=N)N)NC(=O)[C@@H](NC(=O)[C@H](CC(C)C)NC(=O)[C@H](Cc1c[nH]c2ccccc12)NC(=O)[C@H](CCC(N)=O)NC(=O)[C@@H](N)Cc1ccc(O)cc1)[C@@H](C)O)C(C)C)[C@@H](C)O)C(=O)N[C@@H](CCCCN)C(=O)NCC(=O)N[C@H](C(=O)N[C@H](C(=O)N[C@H](C(=O)N[C@@H](Cc1c[nH]cn1)C(=O)N[C@@H](CCCNC(=N)N)C(=O)N[C@@H](CC(C)C)C(=O)N[C@@H](CCC(=O)O)C(=O)NCC(=O)N[C@H](C(=O)N[C@@H](CCC(=O)O)C(=O)O)C(C)C)C(C)C)[C@@H](C)CC)C(C)C [LB2] (H-YQWLTRVGKYRPQDKPNTGPSLKLLSLIKGVIVHRLEGVE-OH) | recognized homologous fimbrin | ~10000 (≈ 2180 µM) |  | 10,000 | 0 | performed less well |  | 500 | ≦100 | Equivalent results | recognized heterologous fimbrin contained in the outer membrane preparation
B1 | recognizes itself |  |  |  |  |  |  |  |  |  | recognizes a heteroloous fimbrin
